{"source": "patent US20220168430A1", "about": "“THERAPEUTIC METHODS FOR TREATING HEPATITIS B” (priority 2019, published 2022)", "key": {"HBV genome": {"tested_on": "HBV genome", "test": "IC 50 of HBV siRNA duplexes (Table A)", "parameters": "species or system Hepatitis B virus", "settings": "siRNA duplex"}, "HBV DNA [1]": {"tested_on": "HBV DNA", "test": "Serum HBV DNA in pHBV1.3 hydrodynamic injection mouse model of HBV (Example 12)", "type": "in vivo, NOD.CB17-Prkdc scid/J mice; HBV genotype D, serotype ayw", "settings": "once daily oral from Day 0: RNA destabilizer 10 mg/kg, encapsidation inhibitor 100 mg/kg, nucleos(t)ide analog 0.4 mg/kg, group mean ± SEM, n=7 or 8, from negative control", "description": "(§1) On Day −7, 10 micrograms of the plasmid pHBV1.3 (constructed based on details provided in Guidotti, L., et al., Journal of Virology, 1995, 69(10): 6158-6169) was administered to NOD.CB 17-Prkdc^scid/J mice via hydrodynamic injection (HDI; rapid 1.6 mL injection into the tail vein). […] As readouts of the anti-HBV effect of the treatments, serum HBV DNA and serum HBsAg were assessed. Serum HBV DNA concentration in mice was measured using a quantitative PCR assay following total DNA extraction using previously published primers and probe sequences (Tanaka, Y., et al., Journal of Medical Virology, 2004, 72: 223-229). Serum HBsAg concentration in mice was measured using a commercially available ELISA kit (HBsAg EIA 3.0 480 Test Kit, Bio-Rad).\n(§2) Animals were treated with RNA destabilizer as follows: Starting on Day 0, a 10 mg/kg dosage of RNA destabilizer was administered orally to animals on a once-daily frequency for a total of seven doses across the duration of the study. Animals were treated with encapsidation inhibitor as follows: Starting on Day 0, a 100 mg/kg dosage of encapsidation inhibitor was administered orally to animals on a once-daily frequency for a total of seven doses across the duration of the study. Animals were treated with nucleos(t)ide analog as follows: Starting on Day 0, a 0.4 mg/kg dosage of nucleos(t)ide analog was administered orally to animals on a once-daily frequency for a total of seven doses across the duration of the study. The RNA destabilizer, the encapsidation inhibitor, and nucleos(t)ide analog were each dissolved in the same co-solvent formulation for administration and negative control animals were administered the co-solvent formulation alone. To calculate treatment-specific effects, the treated groups are compared against negative control (vehicle treated) animals.\n(§3) The effect of these treatments was determined by collecting blood on Days −1 (prior to study's treatment phase), 4, and 7 and analyzing it for serum HBV DNA and HBsAg content."}, "HBsAg [2]": {"tested_on": "HBsAg", "test": "Serum HBsAg in pHBV1.3 hydrodynamic injection mouse model of HBV (Example 12)", "type": "in vivo, NOD.CB17-Prkdc scid/J mice; HBV genotype D, serotype ayw", "settings": "for Serum HBsAg log reduction: once daily oral from Day 0: RNA destabilizer 10 mg/kg, encapsidation inhibitor 100 mg/kg, nucleos(t)ide analog 0.4 mg/kg, group mean ± SEM, n=7 or 8, from negative control", "description": "as §1, §2, §3"}, "HBV DNA [3]": {"tested_on": "HBV DNA", "type": "in vivo, C57BL/6 mice; HBV serotype Ayw, genotype D", "settings": "group mean ± SEM, n=6", "description": "(§4) Prior to treatment start, 1×10^11 viral genomes of an adeno-associated virus (AAV) vector carrying a 1.3-fold overlength copy of an HBV genome (serotype Ayw, genotype D) was administered to C57BL/6 mice via intravenous injection. Introduction of this viral vector results in the expression of HBV DNA and HBV surface antigen (HBsAg) amongst other HBV products. Serum HBV DNA levels in mice was measured using a quantitative polymerase chain reaction (QPCR) assay, HBsAg in serum and liver of mice was measured using an enzyme-linked immunosorbent assay (ELISA), and anti-HBsAg antibodies were measured using ELISA.\n(§5) Treatment effects on serum HBV DNA were determined by collecting a small amount of blood on Days 0 (pre-treatment) and 14, as well as from terminal blood collections at Day 42. Treatment effects on HBsAg in serum and liver were determined from terminal sample collections at Day 42.\n(§6) Any individual animal samples measured to fall below assay lower limit of quantitation (LLOQ) were reported as the LLOQ value."}, "HBsAg [4]": {"tested_on": "HBsAg", "test": "Liver HBsAg by ELISA in AAV-HBV mouse model (Example 18)", "type": "in vivo, C57BL/6 mice; HBV serotype Ayw, genotype D", "settings": "Study Day 42; siRNA 3 mg/kg s.c. Days 0 and 28, encapsidation inhibitor 100 mg/kg and/or TDF 1 mg/kg oral daily Days 0-41; group mean ± SEM, n=6", "description": "as §4, §5, §6"}}, "note": "pIC50: −log10 of the molar value. Like-named read-outs stand apart in the source and are kept apart here.", "data": [{"molecule": "13m: \"double stranded siRNA molecules selected from the group consisting of 1m, 2m, 3m ... 15m\" (sense GCCGAUCCAUACUGCGGAAUU; antisense UUCGGCUAGGUAUGACGCCUU; chemistry not fully specified; one strand is listed 3' to 5') [Compound 13m]", "values": [{"measurement": "pIC50", "setting": "HBV genome", "result": 9.70}]}, {"molecule": "14m: \"double stranded siRNA molecules selected from the group consisting of 1m, 2m, 3m ... 15m\" (sense GCUCAGUUUACUAGUGCCAUU; antisense UUCGAGUCAAAUGAUCACGGU; chemistry not fully specified; one strand is listed 3' to 5') [Compound 14m]", "values": [{"measurement": "pIC50", "setting": "HBV genome", "result": 9.80}]}, {"molecule": "Cn1cnc(COC(=O)N[C@H]2CCc3c(C(=O)Nc4ccc(F)c(Cl)c4)ccc(F)c32)n1", "note": "[Encapsidation Inhibitor]", "values": [{"measurement": "Serum HBV DNA log reduction", "setting": "HBV DNA [1]; Day 4", "result": "0.94 ± 0.07", "unit": "log"}, {"measurement": "Serum HBV DNA log reduction", "setting": "HBV DNA [1]; Day 7", "result": "0.86 ± 0.12", "unit": "log"}, {"measurement": "Serum HBsAg log reduction", "setting": "HBsAg [2]; Day 4", "result": "−0.12 ± 0.03", "unit": "log"}, {"measurement": "Serum HBsAg log reduction", "setting": "HBsAg [2]; Day 7", "result": "0.07 ± 0.04", "unit": "log"}, {"measurement": "Serum HBV DNA", "setting": "HBV DNA [3]; Day 0 (pre-treatment)", "result": "4.45 ± 0.13", "unit": "log10 copies/microliter"}, {"measurement": "Serum HBV DNA", "setting": "HBV DNA [3]; Day 14, siRNA 3 mg/kg s.c. Days 0 and 28, encapsidation inhibitor 100 mg/kg and/or TDF 1 mg/kg oral daily", "result": "3.89 ± 0.07", "unit": "log10 copies/microliter"}, {"measurement": "Serum HBV DNA", "setting": "HBV DNA [3]; Day 42, siRNA 3 mg/kg s.c. Days 0 and 28, encapsidation inhibitor 100 mg/kg and/or TDF 1 mg/kg oral daily Days 0-41", "result": "4.49 ± 0.07", "unit": "log10 copies/microliter"}, {"measurement": "Liver HBsAg", "setting": "HBsAg [4]", "result": "2.03 ± 0.03", "unit": "log10 IU/mg liver protein"}]}, {"molecule": "COCCCOc1cc2c(nc1OC)-c1cc(=O)c(C(=O)O)cn1[C@H](C(C)C)C2", "note": "[RNA destabilizer]", "values": [{"measurement": "Serum HBV DNA log reduction", "setting": "HBV DNA [1]; Day 4", "result": "0.48 ± 0.11", "unit": "log"}, {"measurement": "Serum HBV DNA log reduction", "setting": "HBV DNA [1]; Day 7", "result": "0.48 ± 0.10", "unit": "log"}, {"measurement": "Serum HBsAg log reduction", "setting": "HBsAg [2]; Day 4", "result": "0.75 ± 0.03", "unit": "log"}, {"measurement": "Serum HBsAg log reduction", "setting": "HBsAg [2]; Day 7", "result": "0.86 ± 0.04", "unit": "log"}, {"measurement": "effect on viral protein production (serum HBsAg biomarker)", "setting": "HBsAg [2]; mouse, once-daily oral, seven doses", "result": "reductive effect on viral protein production"}]}]}
